Laboratory results: ChEMBL document CHEMBL6096670, “Design, synthesis and biological evaluation of novel β-carbolines as antitumor agents via targeting autophagy in colorectal cancer” (Eur J Med Chem, 2025)
The source made the active and inactive calls. No cut-off for these calls is given here.

Experiments:
[1] = tested on: HCT-116; assay: Inhibition of cell migration in human HCT-116 cells at 1 to 2 uM incubated for 24 hrs by cell scratch assay; assay type: functional, cell-based; conditions: dose 1-2 µM
[2] = tested on: HCT-116; assay: Effect on caspase 3 expression level in Bax knockout human HCT-116 cells at 1 to 2 uM incubated for 24 hrs by Western blot analysis; assay type: functional, cell-based; conditions: dose 1-2 µM
[3] = tested on: HT-29; assay: Antiproliferative activity against human HT-29 cells assessed as inhibition of cell growth incubated for 48 hrs by MTT assay; assay type: functional, cell-based; conditions: HT-29, 48 h
[4] = tested on: HCT-116; assay: Induction of apoptosis in human HCT-116 assessed as necrotic cells at 1 uM pretreated with Z-VAD-FMK for 30 mins followed by compound addition and measured after 24 hrs by Annexin V-FITC/PI double staining based flow cytometry (reference value: 0.84 %); assay type: functional
[5] = tested on: HCT-116; assay: Induction of apoptosis in human HCT-116 assessed as viable cells at 2 uM incubated for 24 hrs Annexin V FITC/PI double staining based flow cytometry (Rvb =90.0%); assay type: functional; conditions: read-out: Activity
[6] = tested on: HCT-116; assay: Induction of morphological changes in human HCT-116 cells assessed as suppression of cell growth at 0.5 to 2 uM by microscopic analysis; assay type: functional, cell-based; conditions: dose 0.5-2 µM
[7] = tested on: HCT-116; assay: Induction of apoptosis in human HCT-116 cells assessed as effect on cleaved caspase-3 expression level at 0.5 to 2 uM incubated for 24 hrs by Western blot analysis; assay type: functional, cell-based; conditions: dose 0.5-2 µM
[8] = tested on: MCF7; assay: Antiproliferative activity against human MCF7 cells assessed as inhibition of cell growth incubated for 48 hrs by MTT assay; assay type: functional, cell-based; conditions: MCF7, 48 h
[9] = Toxicity in female BALB/c mouse implanted with mouse CT26 cells assessed as change in spleen morphology at 1 to 2 mg/kg administrated once every 3 days for 18 days by H&E staining based analysis; assay type: organism-based; conditions: in vivo, 432 h, dose 1-2 mg/kg, time 18 day
[10] = tested on: HCT-116; assay: Induction of apoptosis in human HCT-116 assessed as necrotic cells at 2 uM pretreated with Z-VAD-FMK for 30 mins followed by compound addition and measured after 24 hrs by Annexin V-FITC/PI double staining based flow cytometry (reference value: 0.84%); assay type: functional
[11] = tested on: HepG2; assay: Antiproliferative activity against human HepG2 cells assessed as inhibition of cell growth incubated for 48 hrs by MTT assay; assay type: functional, cell-based; conditions: HepG2, 48 h
[12] = tested on: HCT-116; assay: Effect on cleaved caspase 3 expression level in p53 knockout human HCT-116 cells at 1 to 2 uM incubated for 24 hrs by Western blot analysis; assay type: functional, cell-based; conditions: dose 1-2 µM
[13] = tested on: HCT-116; assay: Induction of apoptosis in human HCT-116 assessed as late apoptotic cells at 1 uM pretreated with Z-VAD-FMK for 30 mins followed by compound addition and measured after 24 hrs by Annexin V-FITC/PI double staining based flow cytometry (reference value: 7.43 %); assay type: functional
[14] = tested on: HCT-116; assay: Antiproliferative activity against Bax knockout human HCT-116 cells assessed as inhibition of cell viability incubated for 24 hrs by CCK8 assay; assay type: functional, cell-based; conditions: HCT-116, 24 h
[15] = tested on: CT26; assay: Antitumor activity against mouse CT26 cells implanted in female BALB/c mouse assessed as reduction in tumor volume at 2 mg/kg administrated once every 3 days for 18 days; assay type: functional, organism-based; conditions: time 18.0 day
[16] = tested on: HCT-116; assay: Effect on cleaved caspase 3 expression level in Bax knockout human HCT-116 cells at 1 to 2 uM incubated for 24 hrs by Western blot analysis; assay type: functional, cell-based; conditions: dose 1-2 µM
[17] = tested on: HCT-116; assay: Effect on apoptosis pathway related genes expression in human HCT-116 cells at 1 uM incubated for 24 hrs by GSVA enrichment analysis; assay type: functional, cell-based
[18] = tested on: HCT-116; assay: Induction of apoptosis in human HCT-116 assessed as early apoptotic cells at 2 uM incubated for 24 hrs Annexin V FITC/PI double staining based flow cytometry (reference value: 1.07 %); assay type: functional
[19] = tested on: HCT-116; assay: Induction of autophagy in human HCT-116 cells transfected with tandem mRFP-GFP-LC3 plasmid assessed as increase in LC3-II accumulation incubated for 24 hrs by Western blot analysis; assay type: functional, cell-based; conditions: dose 0.5-20 µM
[20] = tested on: HCT-116; assay: Induction of apoptosis in human HCT-116 assessed as early apoptotic cells at 1 uM incubated for 24 hrs Annexin V FITC/PI double staining based flow cytometry (reference value: 1.07 %); assay type: functional
[21] = tested on: A-375; assay: Antiproliferative activity against human A-375 cells assessed as inhibition of cell growth incubated for 48 hrs by MTT assay; assay type: functional, cell-based; conditions: A-375, 48 h
[22] = Toxicity in female BALB/c mouse implanted with mouse CT26 cells assessed as change in lung morphology at 1 to 2 mg/kg administrated once every 3 days for 18 days by H&E staining based analysis; assay type: organism-based; conditions: in vivo, 432 h, dose 1-2 mg/kg, time 18 day
[23] = Toxicity in female BALB/c mouse implanted with mouse CT26 cells assessed as change in kidney morphology at 1 to 2 mg/kg administrated once every 3 days for 18 days by H&E staining based analysis; assay type: organism-based; conditions: in vivo, 432 h, dose 1-2 mg/kg, time 18 day
[24] = tested on: HCT-116; assay: Induction of apoptosis in human HCT-116 assessed as viable cells at 1 uM incubated for 24 hrs Annexin V FITC/PI double staining based flow cytometry (Rvb =90.0%); assay type: functional; conditions: read-out: Activity
[25] = tested on: CT26; assay: Antitumor activity against mouse CT26 cells implanted in female BALB/c mouse assessed as reduction in tumor weight at 2 mg/kg administrated once every 3 days for 18 days relative to control; assay type: functional; design: scale not given: the % may be the effect or the level left; conditions: time 18 day
[26] = tested on: HCT-116; assay: Induction of apoptosis in human HCT-116 assessed as early apoptotic cells at 1 uM pretreated with Z-VAD-FMK for 30 mins followed by compound addition and measured after 24 hrs by Annexin V-FITC/PI double staining based flow cytometry (reference value: 0.95%); assay type: functional
[27] = tested on: CT26; assay: Antitumor activity against mouse CT26 cells implanted in female BALB/c mouse assessed as reduction in tumor volume at 1 to 2 mg/kg administrated once every 3 days for 18 days; assay type: functional, organism-based; conditions: dose 1-2 mg/kg, time 18.0 day
[28] = tested on: HCT-116; assay: Induction of autophagy in human HCT-116 cells transfected with mRFP-GFP-LC3B assessed as autophagolysosome formation by measuring decrease in GFP fluorescence at 0.5 to 2 uM incubated for 24 hrs by DAPI staining based fluorescence confocal microscopic analysis; assay type: functional, cell-based; conditions: dose 0.5-2 µM
[29] = tested on: HCT-116; assay: Induction of apoptosis in human HCT-116 cells assessed as effect on cleaved caspase 9 expression level at 0.5 to 2 uM incubated for 24 hrs by Western blot analysis; assay type: functional, cell-based; conditions: dose 0.5-2 µM
[30] = tested on: HCT-116; assay: Induction of autophagy in ATG5 knockout human HCT-116 cells assessed as increase in LC3-II expression at 1 to 2 uM incubated for 24 hrs by Western blot analysis; assay type: functional, cell-based; conditions: dose 1-2 µM
[31] = tested on: SK-OV-3; assay: Antiproliferative activity against human SK-OV-3 cells assessed as inhibition of cell growth incubated for 48 hrs by MTT assay; assay type: functional, cell-based; conditions: SK-OV-3, 48 h
[32] = tested on: HCT-116; assay: Effect on PARP expression level in Bax knockout human HCT-116 cells at 1 to 2 uM incubated for 24 hrs by Western blot analysis; assay type: functional, cell-based; conditions: dose 1-2 µM
[33] = tested on: HCT-116; assay: Induction of morphological changes in human HCT-116 cells assessed as decrease in adherence to culture dish at 0.5 to 2 uM by microscopic analysis; assay type: functional, cell-based; conditions: dose 0.5-2 µM
[34] = tested on: HCT-116; assay: Antiproliferative activity against p53 knockout human HCT-116 cells assessed as inhibition of cell viability incubated for 24 hrs by CCK8 assay; assay type: functional, cell-based; conditions: HCT-116, 24 h

IC50 [3]: 2.65 µM
IC50 [8]: 4.46 µM
IC50 [11]: 4.58 µM
IC50 [14]: 2.76 µM
IC50 [21]: 4.45 µM
IC50 [31]: 4.26 µM
IC50 [34]: 2.45 µM
SMILES: CCN(CC)CCCNCc1cc2c3ccccc3n(CCCc3ccccc3)c2c(CNCCCN(CC)CC)n1
inhibition [1]: Active
Activity [2]: inactive
Activity [4]: 2.2%
viability at 2 µM [5]: 80.5%
Activity [6]: Active
Activity [7]: inactive
Activity [9]: Non-toxic
Activity [10]: 1.8%
Activity [12]: inactive
Activity [13]: 12.4%
Activity [15]: Active; Stronger Than 4Mg/Kg Of Cisplatin Treatment Group
Activity [16]: inactive
Activity [17]: inactive
Activity [18]: 2.78%
Activity [19]: Dose-dependent-effect; Transformation Of Lc3-I To Lc3-Ii Observed
Activity [20]: 2.19%
Activity [22]: Non-toxic
Activity [23]: Non-toxic
viability at 1 µM [24]: 84.6%
Activity [25]: 87.3%
Activity [26]: 1.75%
Activity [27]: Active
Activity [28]: Active
Activity [29]: inactive
Activity [30]: inactive
Activity [32]: inactive
Activity [33]: Active
